Where two headings read alike, the source gives them in different places.
What was measured:
[1] = tested on: rats with chronic spinal cord injury exhibiting allodynia; assay: Intrathecal salicylate for pain: allodynia on light touch in rats with chronic spinal cord injury; type: in vivo, rat; details: intrathecal via ESOX pump, 60 μl per day; two rats; saline replaced by salicylate
Protocol: A 1-French silicon tubing was threaded into the intrathecal space from the atlanto-occipital membrane. The intrathecal catheter was connected an ESOX that was implanted subcutaneously. The ESOX pump flowed at a rate of 60 μl per day. Initially, saline was placed in the pumps. At testing on days 2, 12, 14 after pump placement, signs of allodynia were consistently observed when the animals were lightly touched at particular parts of their body (left flank for rat 1 and right shoulder for rat 2). Animals vocalized consistently when these areas were lightly touched. All of the behavioral testing was done by a person who was unaware of the type of drug delivered or the expected effects of the drug. The saline was removed from the pumps and the pumps were refilled with salicylate. […] When the salicylate was removed and replaced with saline, consistent allodynia was observed.

[2] = tested on: rats with spinal cord injury; assay: BBB locomotor test after moderate to severe spinal cord injury; type: in vivo, rat; details: intrathecal via ESOX pump, 60 μl per day
Protocol: In this study, twenty-four rats deeply anesthetized rats received a moderate to severe spinal cord injury using a 2-French Fogarty embolectomy catheter. Shortly after injury, a 1-French silicon tubing was threaded into the intrathecal space from the atlanto-occipital membrane. The intrathecal catheter was connected an ESOX that was implanted subcutaneously. The ESOX pump flowed at a rate of 60 μl per day. Animals were randomly assigned to receive saline or salicylate. Animals were tested each week using the BBB locomotor test. All of the behavioral testing was done by a person who was unaware of the type of drug delivered or the expected effects of the drug. […] The average score for the saline treated rats was 0 while the average score for salicylate treated rats was 5.45.

Male Sprague-Dawley rats [3] = details: rat, in vivo
Male Sprague-Dawley rats [4] = details: rat, in vivo; remark: listed apart in the source
Male Sprague-Dawley rats [5] = details: rat, in vivo; remark: listed apart in the source

Compound	allodynia (vocalization when lightly touched) [1]	functional deficits versus saline [2]	average BBB locomotor score ([2]; started shortly after injury)	duration of effects (Male Sprague-Dawley rats [3])	onset of response to the bolus (Male Sprague-Dawley rats [3])	tail flick latency response (Male Sprague-Dawley rats [3])	colorectal distension visceromotor response threshold (Male Sprague-Dawley rats [4])	duration of effects (Male Sprague-Dawley rats [4])	onset of response to the bolus (Male Sprague-Dawley rats [4])	effect on flinches/licks of the hindpaw (formalin test) (Male Sprague-Dawley rats [5])
O=C(O)c1ccccc1O [salicylate]	no evidence of allodynia was observed	on average less functional deficits	5.45							
choline-magnesium trisalicylate [Choline-Mg-Salicylate]				not long-lasting	rapid in onset	dose-dependent	dose-dependent	not long-lasting	rapid in onset	produced an effect
